Experimental findings from PubChem BioAssay (NCI) are described below.

Test systems include M19-MEL melanoma; DLD-1 colon; HOP-18 NSCLC; LXFL 529 NSCLC; DMS 273 small cell lung; XF 498 CNS; RXF-631 renal; DMS 114 small cell lung; KM20L2 colon.
Assay in all cases: growth of human tumour cells (NCI), 48 h

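Grown in 96-well plates, cells were treated for 48 hours with each compound at five concentrations. Insufficient inhibition: endpoint recorded as highest concentration tested. TGI is the concentration that stops growth completely.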 A value given as a limit tells only on which side of the number the result lay.

Turning to `CCCN(CCC)c1c([N+](=O)[O-])cc(C(=O)N(CCO)CCO)cc1[N+](=O)[O-]`, the TGI in the assay on M19-MEL melanoma, with DLD-1 colon, with HOP-18 NSCLC, with LXFL 529 NSCLC, in the assay on DMS 273 small cell lung and in the assay with XF 498 CNS was more than 100 µM throughout.

Turning to `CCOC(=O)C1([Se]c2ccccc2)CCCC1=O` (stereo not drawn), the TGI in the assay with RXF-631 renal is more than 100 µM; with M19-MEL melanoma it was 51.1 µM; in the assay with DLD-1 colon, 32.9 µM; in the assay with HOP-18 NSCLC it was 59.7 µM; with DMS 114 small cell lung, 15.3 µM; in the assay with LXFL 529 NSCLC, 34.2 µM. The results for the TGI in the assay with DMS 273 small cell lung, with KM20L2 colon and in the assay with XF 498 CNS were 28.5 µM, more than 100 µM and 36.9 µM, respectively.

With `O=C1C2C3C=C4c5ccccc5N(c5ccccc5)C4(C2C(=O)N1c1ccc(Br)cc1)[C@H]1C(=O)N(c2ccc(Br)cc2)C(=O)[C@@H]31` (stereo partly drawn), the TGI in the assay on DLD-1 colon, in the assay on HOP-18 NSCLC, in the assay on LXFL 529 NSCLC, in the assay on DMS 273 small cell lung, in the assay with KM20L2 colon and with XF 498 CNS was more than 100 µM each time.

On to `COc1ccc2[nH]c3c(C)cc([N+](=O)[O-])c(C)c3c2c1`, for which the TGI in the assay on M19-MEL melanoma was 45.1 µM; in the assay on DLD-1 colon, 72.7 µM; with HOP-18 NSCLC, more than 100 µM; in the assay on DMS 114 small cell lung it was 58.3 µM; in the assay with LXFL 529 NSCLC it was more than 100 µM; with DMS 273 small cell lung, 45.4 µM. Moreover, the TGI with KM20L2 colon and with XF 498 CNS was more than 100 µM in each case.

For the molecule `OC12c3ccccc3C3CCC4(OCCO4)C3C1c1ccccc12` (stereo not drawn), the TGI in the assay on M19-MEL melanoma, with DLD-1 colon, in the assay on HOP-18 NSCLC, in the assay with DMS 114 small cell lung, with LXFL 529 NSCLC and with DMS 273 small cell lung was more than 100 µM each time. Besides, the TGI with KM20L2 colon is more than 100 µM.

Regarding `C#CC1(O)CCC2[C@@H]3CCc4cc(Oc5nc(F)nc(-c6c7ccccc7cn6C)n5)ccc4C3CC[C@@]21C` (stereo partly drawn), the TGI in the assay with M19-MEL melanoma is more than 100 µM; in the assay with DLD-1 colon, more than 73.5 µM; with HOP-18 NSCLC, more than 100 µM; in the assay with DMS 114 small cell lung it was more than 53.2 µM; with LXFL 529 NSCLC it was more than 100 µM; with DMS 273 small cell lung, more than 100 µM. Further, the TGI in the assay on KM20L2 colon and with XF 498 CNS was more than 100 µM each time.

On to `O=c1[nH]c(=O)n(C2CC(O)C(CO)O2)cc1C#Cc1ccc(F)cc1` (stereo not drawn), for which the TGI in the assay with M19-MEL melanoma, with DLD-1 colon, in the assay with HOP-18 NSCLC, in the assay on DMS 114 small cell lung, in the assay with LXFL 529 NSCLC and in the assay with DMS 273 small cell lung was more than 100 µM each time. Also, the TGI with KM20L2 colon and with XF 498 CNS was more than 100 µM each time.

For `CCOC(=O)/C(=C/c1ccc(N(CCC#N)CCC#N)cc1C)NC(=O)/C=C/c1ccccc1`, the TGI with M19-MEL melanoma, with DLD-1 colon, in the assay on DMS 114 small cell lung, in the assay with LXFL 529 NSCLC, in the assay on DMS 273 small cell lung and with KM20L2 colon was more than 100 µM in each case. Besides, the TGI in the assay with XF 498 CNS is more than 100 µM.

As for `COc1ccc(C(=O)N/N=C/c2c(C)n(C)n(-c3ccccc3)c2=O)cc1`, the TGI in the assay with M19-MEL melanoma, in the assay with DLD-1 colon, in the assay with HOP-18 NSCLC, in the assay on DMS 114 small cell lung, with LXFL 529 NSCLC and with DMS 273 small cell lung was more than 100 µM throughout. Further, the TGI in the assay on KM20L2 colon and in the assay on XF 498 CNS was more than 100 µM each time.

On to `COc1cc2c(cc1C1=NC(C)(C)CO1)OCO2`, for which the TGI with RXF-631 renal, in the assay with M19-MEL melanoma, in the assay with DLD-1 colon, with HOP-18 NSCLC, with DMS 114 small cell lung and with LXFL 529 NSCLC was more than 100 µM in each case. For the same molecule, the TGI with KM20L2 colon and in the assay on XF 498 CNS was more than 100 µM in each case.

Turning to `C=CCOC(=O)C1CCC(=O)N1C(=O)C(Cl)Cl` (stereo not drawn), the TGI with M19-MEL melanoma, in the assay with DLD-1 colon, in the assay on HOP-18 NSCLC, with DMS 114 small cell lung, with LXFL 529 NSCLC and in the assay with DMS 273 small cell lung was more than 100 µM in each case. Moreover, the TGI was more than 100 µM with KM20L2 colon and 33.2 µM with XF 498 CNS.

Consider `O=c1[nH]c(=O)n(C2OC(CO)C(O)C2O)cc1OCC(F)(F)F` (stereo not drawn), for which the TGI in the assay with M19-MEL melanoma, in the assay with DLD-1 colon, with HOP-18 NSCLC, with DMS 114 small cell lung, in the assay on LXFL 529 NSCLC and in the assay on DMS 273 small cell lung was more than 100 µM each time. Further, the TGI with KM20L2 colon and in the assay on XF 498 CNS was more than 100 µM in each case.

In the case of `CC1NC(=O)C2=C1C(N)=NC(=O)C2` (stereo not drawn), the TGI in the assay on M19-MEL melanoma, in the assay with DLD-1 colon, in the assay with HOP-18 NSCLC, in the assay with DMS 114 small cell lung, in the assay on LXFL 529 NSCLC and with DMS 273 small cell lung was more than 100 µM in each case. For the same molecule, the TGI in the assay on KM20L2 colon and in the assay with XF 498 CNS was more than 100 µM in each case.

For `CC(=O)NNc1nc(C)c(C(=O)NNC(=O)C(=O)Nc2ccc([N+](=O)[O-])cc2C#N)s1`, the TGI in the assay with M19-MEL melanoma, with DMS 114 small cell lung, in the assay on LXFL 529 NSCLC, with DMS 273 small cell lung, in the assay on KM20L2 colon and with XF 498 CNS was more than 100 µM each time.

Turning to `CCn1c2c(c3ccccc31)C(c1ccccc1)CC1C(=O)N(c3ccccc3)C(=O)C21` (stereo not drawn), the TGI in the assay on M19-MEL melanoma, with DLD-1 colon, in the assay with DMS 114 small cell lung, in the assay with LXFL 529 NSCLC, in the assay on DMS 273 small cell lung and in the assay on KM20L2 colon was more than 100 µM throughout. The molecule further had a TGI with XF 498 CNS of 37.2 µM.

Turning to `CC(C)(C)OC(=O)c1cccnc1/C=N/O`, the TGI with RXF-631 renal, in the assay with M19-MEL melanoma, in the assay with DLD-1 colon, with HOP-18 NSCLC, with DMS 114 small cell lung and in the assay with LXFL 529 NSCLC was more than 100 µM in each case. Moreover, the TGI in the assay on DMS 273 small cell lung, in the assay on KM20L2 colon and with XF 498 CNS was more than 100 µM each time.

As for `CC(=O)N(O)Cc1ccccc1`, the TGI in the assay on RXF-631 renal, in the assay with M19-MEL melanoma, in the assay with DLD-1 colon, with DMS 114 small cell lung, in the assay with LXFL 529 NSCLC and in the assay with KM20L2 colon was more than 100 µM in each case. This molecule returned a TGI in the assay on XF 498 CNS of more than 100 µM.
